Reference: paper PMC2646255 (Journal of medicinal chemistry, 2008)
pKi: −log10 of the molar value.

How the values were obtained:
σ2 receptor = molecular target: T1, σ2 receptor (Rattus norvegicus, UniProt Q5U3Y7); test: NIMH-PDSP binding screen
T1 sequence (Q5U3Y7 1-176): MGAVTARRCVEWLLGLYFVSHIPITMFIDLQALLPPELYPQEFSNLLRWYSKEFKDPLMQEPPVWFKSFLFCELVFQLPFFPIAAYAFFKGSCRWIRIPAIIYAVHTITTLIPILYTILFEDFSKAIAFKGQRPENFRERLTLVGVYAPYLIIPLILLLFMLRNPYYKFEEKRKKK

σ1 receptor = σ1 receptor (Cavia porcellus, UniProt Q60492); test: NIMH-PDSP binding screen; conditions: read-out: inhibition of binding
[1] = type: in vivo, rhesus monkeys (Macaca mulatta); conditions: 1 mg/kg i.v. at 30 min after [^11C]3, DCPQ-treated monkeys
5-HT2C receptor = test: NIMH-PDSP binding screen; conditions: 10 μM
κ-opiate receptor = test: NIMH-PDSP binding screen; conditions: 10 μM
5-HT2A receptor = test: NIMH-PDSP binding screen; conditions: 10 μM
P-gp [2] = conditions: monkey, DCPQ 8 mg/kg or 16 mg/kg i.v. before [^11C]3
[3] = monkey, DCPQ 8 mg/kg i.v.
P-gp [4] = conditions: P-gp knockout mouse brain; cited from earlier work

σ1 receptor, sequence (Q60492 whole entry): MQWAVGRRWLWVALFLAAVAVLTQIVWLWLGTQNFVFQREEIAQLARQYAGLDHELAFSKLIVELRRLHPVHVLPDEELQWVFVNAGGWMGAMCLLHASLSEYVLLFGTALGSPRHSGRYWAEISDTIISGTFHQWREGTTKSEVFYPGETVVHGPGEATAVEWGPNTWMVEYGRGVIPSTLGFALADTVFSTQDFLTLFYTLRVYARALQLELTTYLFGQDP

With `CNC(=O)C(CCN1CCC(O)(c2ccc(Cl)cc2)CC1)(c1ccccc1)c1ccccc1` [Compound 3, 4-(4-(4-Chlorophenyl)-4-hydroxypiperidin-1-yl)-2,2-diphenyl-N-methyl-butanamide] the pKi (σ2 receptor; Ki, σ2) was > 8.00, the inhibition at 10 µM (σ2 receptor; read-out: inhibition of binding) was > 50% and the inhibition at 10 µM (σ1 receptor) was > 50%. The “effect on washout of radioactivity from brain” value [1] was “no discernible effect”, the inhibition of binding (5-HT2C receptor) was < 50% and the inhibition of binding (κ-opiate receptor) was < 50%. For the same compound, the inhibition of binding (5-HT2A receptor) was < 50%.

For `Cl.Cl.Cl.O[C@@H](COc1cccc2ncccc12)CN1CCN(C2c3ccccc3C3C(c4ccccc42)C3(Cl)Cl)CC1` (stereo partly drawn) [DCPQ, (2R)-anti-5-{3-[4-(10,11-dichloromethanodibenzo-suber-5-yl)piperazin-1-yl]-2-hydroxypropoxy}quinoline trihydrochloride, reference compound], the “effect on uptake of radioactivity into pituitary” value (P-gp [2]) was “no effect” and the “effect on rate at which each radiometabolite emerged in plasma” value [3] was “little effect”.

For `CN([11CH3])C(=O)C(CCN1CCC(O)(c2ccc(Cl)cc2)CC1)(c1ccccc1)c1ccccc1` [[^11C]loperamide], the “unchanged radiotracer as share of radioactivity in brain” value (P-gp [4]) is listed as ~ 50%.

In the case of `CN(C)C(=O)C(CCN1CCC(O)(c2ccc(Cl)cc2)CC1)(c1ccccc1)c1ccccc1` [loperamide, reference compound], the “effect on washout of radioactivity from brain” value [1] was “no discernible effect”.
